Source: patent US8609362B2, “G-proteins” (Givaudan SA, priority 2002, dated 2013)
Read-outs that look alike come from different tables or passages of the source. Residues, ends and D or L forms follow the SMILES beside them.

Columns and labels:
human TAS2R16 = biological target: T1, human TAS2R16 (Homo sapiens, UniProt Q9NYV7); assay: Fluo-4 calcium assay, cells transiently transfected with human TAS2R16 and expressing a promiscuous G-protein; format: cell-based; conditions: ligand 5 mM; for fluorescent signal with Gα16-gustducin 44, times stronger than reference chimeric G-protein Gα16-z44 / fluorescent signal with Gα16-gustducin 44, times stronger than wild-type Gα16: HEK293T cells, Flexstation; for fluorescent signal with Gα16-gustducin 44, times stronger than reference chimeric G-protein Gα16-z44 / fluorescent signal with Gα16-gustducin 44, times stronger than wild-type Gα16 / fluorescent signal (in words): TAS2R16; for increase in mean fluorescence over baseline following ligand addition: human TAS2R16
T1 construct: expressed in transfected cells; host or cells: HEK293T cells stably expressing Gα16gustducin44, Gα16 or Gα16z44
T1 sequence (Q9NYV7 1-291): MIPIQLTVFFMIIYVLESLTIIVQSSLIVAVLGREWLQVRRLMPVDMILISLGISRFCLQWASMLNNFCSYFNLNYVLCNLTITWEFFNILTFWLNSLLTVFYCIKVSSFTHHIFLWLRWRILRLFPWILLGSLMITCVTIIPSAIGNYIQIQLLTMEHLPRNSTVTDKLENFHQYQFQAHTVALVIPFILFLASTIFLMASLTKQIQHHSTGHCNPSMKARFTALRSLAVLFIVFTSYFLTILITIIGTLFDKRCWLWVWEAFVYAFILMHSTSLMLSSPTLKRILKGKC
Experimental: The protocol is described in “G-protein coupled receptors (Signal Transduction Series)”; Editors: Tatsuya Haga and Gabriel Berstein, 1st ed., 424 pp.CRC Press—Boca Raton, Fla.; September 1999, and may be summarised as follows: • 1. Day 0: 96-well plates are seeded with 20K cells per well and maintained at 37 degrees C. overnight in nutritive growth media. • 2. Day 1: Cells are transfected using 300 ng of GPCR DNA and 0.6 μl of Lipofectamine 2000 (Invitrogen) per well. Transfected cells are and maintained at 37 degrees C. overnight in nutritive growth media. • 3.
(§1) At day 0, cells stably expressing the G-protein are plated in black, clear-bottom 96-well plate at 20,000 cells per well and grown overnight in selective growth media. On day 1, the media is changed to an antibiotic-free growth media and the cells are transfected using 300 ng GPCR DNA and 0.6 μl of Lipofectamine 2000 (Invitrogen). The cells are grown overnight and processed the next day using the Fluo-4 calcium assay conditions described in Example 2 above.

[1] = tested on: G-protein only (control w/o tetracycline); assay: Fluo-4 calcium assay, G-protein only control w/o tetracycline (TAS2R38 cell line); format: cell-based; conditions: Gα16gustducin44, ligand 250 μM
Excerpt: (§2) The following results were obtained:

human TAS2R38 = biological target: T2, human TAS2R38 (Homo sapiens, UniProt P59533); assay: Fluo-4 calcium assay, tetracycline-inducible cells stably expressing human TAS2R38 and G16gust44; format: cell-based; conditions: ligand 250 μM; for fluorescence signal (in words): HEK293 T-Rex cells, TAS2R38, G16-gustducin 44
T2 construct: expressed in transfected cells
T2 sequence (P59533 1-333): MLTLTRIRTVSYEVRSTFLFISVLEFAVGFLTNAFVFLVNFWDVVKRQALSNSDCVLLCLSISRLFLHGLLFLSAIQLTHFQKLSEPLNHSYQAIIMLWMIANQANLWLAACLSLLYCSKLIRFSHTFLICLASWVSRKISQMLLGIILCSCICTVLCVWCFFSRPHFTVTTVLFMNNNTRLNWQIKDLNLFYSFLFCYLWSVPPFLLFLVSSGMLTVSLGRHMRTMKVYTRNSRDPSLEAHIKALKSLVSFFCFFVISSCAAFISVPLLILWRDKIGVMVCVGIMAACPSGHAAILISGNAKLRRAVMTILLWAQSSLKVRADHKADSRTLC
Excerpt: as §2

human TAS1R2/TAS1R3 = biological target: T3, human TAS1R2/TAS1R3 (Homo sapiens, UniProt Q7RTX0+Q8TE23); assay: Fluo-4 calcium assay, cells transfected with human sweet receptor TAS1R2/TAS1R3 and expressing a promiscuous G-protein; format: cell-based; conditions: for fluorescence signal with Gα16-gustducin 44, times stronger than wild-type Gα16: HEK293T cells; for fluorescence signal with Gα16-gustducin 44, times stronger than wild-type Gα16 / fluorescence signal (in words): ligand 2.5 mM
T3 construct: expressed in transfected cells; host or cells: HEK293T cells stably expressing the G-protein, co-transfected with T1R2 and T1R3 cDNA
T3 sequence (Q8TE23 20-839): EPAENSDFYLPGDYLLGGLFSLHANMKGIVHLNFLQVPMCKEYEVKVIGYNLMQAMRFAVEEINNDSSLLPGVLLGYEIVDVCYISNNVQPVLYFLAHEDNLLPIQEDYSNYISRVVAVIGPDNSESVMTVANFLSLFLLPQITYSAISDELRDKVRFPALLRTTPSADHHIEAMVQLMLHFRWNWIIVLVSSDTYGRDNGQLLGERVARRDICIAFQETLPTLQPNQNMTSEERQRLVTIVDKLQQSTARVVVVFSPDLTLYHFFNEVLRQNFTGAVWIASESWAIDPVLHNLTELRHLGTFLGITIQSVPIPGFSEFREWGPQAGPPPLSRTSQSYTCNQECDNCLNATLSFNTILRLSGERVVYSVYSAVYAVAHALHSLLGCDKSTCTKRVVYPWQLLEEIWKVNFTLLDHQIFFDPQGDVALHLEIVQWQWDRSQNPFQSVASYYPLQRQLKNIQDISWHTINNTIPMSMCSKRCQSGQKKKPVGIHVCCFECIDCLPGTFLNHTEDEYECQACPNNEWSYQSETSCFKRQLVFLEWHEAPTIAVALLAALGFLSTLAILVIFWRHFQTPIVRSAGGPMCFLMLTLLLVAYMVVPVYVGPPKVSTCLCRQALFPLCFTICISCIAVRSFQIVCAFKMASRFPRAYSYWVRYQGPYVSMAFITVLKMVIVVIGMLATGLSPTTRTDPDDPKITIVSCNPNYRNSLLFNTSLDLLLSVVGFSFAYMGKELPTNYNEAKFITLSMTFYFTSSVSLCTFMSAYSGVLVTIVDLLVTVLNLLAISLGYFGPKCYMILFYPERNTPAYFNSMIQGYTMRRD
T3 sequence (Q7RTX0 21-852): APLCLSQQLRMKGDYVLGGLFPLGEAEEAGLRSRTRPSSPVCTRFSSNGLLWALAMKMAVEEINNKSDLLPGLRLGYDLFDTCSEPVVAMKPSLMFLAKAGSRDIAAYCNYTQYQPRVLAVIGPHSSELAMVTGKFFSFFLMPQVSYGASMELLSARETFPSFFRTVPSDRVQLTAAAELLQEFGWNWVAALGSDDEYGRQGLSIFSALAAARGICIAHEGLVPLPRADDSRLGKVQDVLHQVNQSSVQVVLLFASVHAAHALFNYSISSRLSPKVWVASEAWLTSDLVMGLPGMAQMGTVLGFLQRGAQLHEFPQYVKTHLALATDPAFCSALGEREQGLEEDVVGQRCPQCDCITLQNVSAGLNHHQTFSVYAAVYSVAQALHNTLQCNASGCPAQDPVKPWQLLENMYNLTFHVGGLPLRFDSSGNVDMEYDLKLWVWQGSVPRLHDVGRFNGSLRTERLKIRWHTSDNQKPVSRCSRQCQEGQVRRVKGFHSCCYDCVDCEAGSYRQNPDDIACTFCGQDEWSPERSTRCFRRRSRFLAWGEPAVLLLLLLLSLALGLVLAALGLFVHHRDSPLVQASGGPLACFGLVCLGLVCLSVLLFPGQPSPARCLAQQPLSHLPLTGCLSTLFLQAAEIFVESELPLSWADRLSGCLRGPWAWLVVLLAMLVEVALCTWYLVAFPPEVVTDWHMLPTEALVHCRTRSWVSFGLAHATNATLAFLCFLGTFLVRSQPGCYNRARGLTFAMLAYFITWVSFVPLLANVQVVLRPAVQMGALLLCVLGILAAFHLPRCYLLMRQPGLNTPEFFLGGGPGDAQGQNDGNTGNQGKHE
Experimental: (§3) At day 0, cells stably expressing the G-protein are plated in a 6-well plate at a density of 800,000-950,000 cells per well and grown overnight in selective growth media. On day 1, the media is changed to an antibiotic-free growth media and the cells are transfected using 2 μg of T1 R2 and 2 μg of T1 R3 cDNA and 10 μl of Lipofectamine 2000 (Invitrogen). The cells are maintained overnight in antibiotic-free growth media. On day 2, the cells are replated into a black, clear-bottom 96 well plate at 20,000 cells per well and grown overnight. The morning of the calcium assay, the media is replaced with low glucose media supplemented with Glutamax and dialyzed FBS to minimize receptor desensitization by sugars and glutamate. The cells are further incubated in this media for 6 hours at 37 degrees C. At the end of this period, the cells are processed for the calcium assay according to conditions described above.
(§4) Following the methodology as described in Example 5 the following results were obtained: […]

[2] = tested on: sham transfected (control); assay: Fluo-4 calcium assay, sham transfected control cells of Table 7; format: cell-based
Experimental: as §3, §4

[3] = tested on: sham transfected (control); assay: Fluo-4 calcium assay, sham transfected control cells of Table 1; format: cell-based
Experimental: as §1

[4] = tested on: G-protein only (control w/o tetracycline); conditions: Gα16gustducin44, ligand 250 μM
Experimental: All assays are performed using black, clear-bottom 96-well plates that have been seeded the day before with 20K transfected cells per well and have been maintained at 37 degrees C. overnight in appropriate growth media. At the time of the assay, the growth media is discarded and cells are incubated for 1 hour (at room temperature in the dark) with 75 μl of a calcium assay solution consisting of 1.5 μM Fluo-4 AM (Molecular Probes) and 2.5 mM probenicid (Sigma-Aldrich) dissolved in a Hanks balanced salts solution (HBSS) that has been supplemented with 10 mM Hepes, 200 μM calcium chloride and 0.1% bovine serum albumin, pH 7.4 at 37 degrees C. […] For assay reading, the plate is placed in a fluorescent microplate reader, for example the Flexstation (Molecular Devices), and receptor activation is initiated following addition of 20 μl of a 10× concentrated ligand stock solution. Fluorescence is continuously monitored for 15 seconds prior to ligand addition and for 45-75 seconds after ligand addition. Receptor activation levels are defined as by the two following equations: % Activation=(Maximum fluorescence−baseline fluorescence/baseline fluorescence)*100 or Fluorescence Increase=Maximum Fluorescence—baseline fluorescence, where baseline fluorescence represents the average fluorescence levels prior to ligand addition. […]

mouse T2R5 = biological target: T4, mouse T2R5 (Mus musculus, UniProt Q9JKT4); assay: Fluo-4 calcium assay, cells transfected with mouse bitter receptor T2R5 and expressing a promiscuous G-protein; format: cell-based; conditions: for increase in mean fluorescence over baseline following ligand addition: ligand 10 μM
T4 construct: expressed in transfected cells; host or cells: HEK293T cells stably expressing Gα16gustducin44 or Gα16
T4 sequence (Q9JKT4 1-300): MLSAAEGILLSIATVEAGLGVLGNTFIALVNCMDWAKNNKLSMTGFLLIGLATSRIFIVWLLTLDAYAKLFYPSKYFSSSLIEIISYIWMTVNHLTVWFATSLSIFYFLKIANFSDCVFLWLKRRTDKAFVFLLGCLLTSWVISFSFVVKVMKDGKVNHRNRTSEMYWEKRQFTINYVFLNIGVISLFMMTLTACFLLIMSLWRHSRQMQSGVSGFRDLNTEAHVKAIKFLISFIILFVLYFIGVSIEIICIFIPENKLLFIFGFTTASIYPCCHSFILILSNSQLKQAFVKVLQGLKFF
Experimental: as §1, §4

[5] = tested on: sham transfected (control); assay: Fluo-4 calcium assay, sham transfected control cells of Table 2; format: cell-based
Experimental: as §1, §4

[6] = G-protein Gα16gustducin44, ligand 2.5 mM

SMILES: OCc1ccccc1O[C@@H]1O[C@H](CO)[C@@H](O)[C@H](O)[C@H]1O [salicin]
- fluorescent signal with Gα16-gustducin 44, times stronger than reference chimeric G-protein Gα16-z44 (human TAS2R16): about 3 times
- fluorescent signal with Gα16-gustducin 44, times stronger than wild-type Gα16 (human TAS2R16): about 7 times
- fluorescent signal (in words) (human TAS2R16): robust fluorescent signal

SMILES: NC(=S)Nc1ccccc1 [phenylthiocarbamide]
- increase in mean fluorescence over baseline following ligand addition [1]: 3422 RFUs
- increase in mean fluorescence over baseline following ligand addition (human TAS2R38; G-protein + human TAS2R38 (with tetracycline), Gα16gustducin44): 8989 RFUs
- fluorescence signal (in words) (human TAS2R38): robust fluorescence signal

SMILES: OC[C@H]1O[C@H](O[C@]2(CCl)O[C@H](CCl)[C@@H](O)[C@@H]2O)[C@H](O)[C@@H](O)[C@H]1Cl [sucralose]
- increase in mean fluorescence over baseline following ligand addition (human TAS1R2/TAS1R3; G-protein Gα15, ligand 2.5 mM): 1300 RFUs
- increase in mean fluorescence over baseline following ligand addition (human TAS1R2/TAS1R3; [6]): 4617 RFUs
- fluorescence signal with Gα16-gustducin 44, times stronger than wild-type Gα16 (human TAS1R2/TAS1R3): 2 times
- fluorescence signal (in words) (human TAS1R2/TAS1R3): robust flurorescence signal
- increase in mean fluorescence over baseline following ligand addition ([2]; G-protein Gα15, ligand 2.5 mM): 643 RFUs
- increase in mean fluorescence over baseline following ligand addition [2, 6]: 1370 RFUs

SMILES: OC[C@H]1O[C@@H](Oc2ccccc2)[C@H](O)[C@@H](O)[C@@H]1O [phenyl-β-D-glucopyranoside]
- fluorescent signal with Gα16-gustducin 44, times stronger than reference chimeric G-protein Gα16-z44 (human TAS2R16): about 3 times
- fluorescent signal with Gα16-gustducin 44, times stronger than wild-type Gα16 (human TAS2R16): about 7 times
- fluorescent signal (in words) (human TAS2R16): robust fluorescent signal
- receptor activation following ligand stimulation, Gα16gustducin44 cells compared with Gα16 cells (in words) (human TAS2R16; hTAS2R16): greater degree of receptor activation
- increase in mean fluorescence over baseline following ligand addition (human TAS2R16; G-protein Gα16): 3494 RFUs
- increase in mean fluorescence over baseline following ligand addition (human TAS2R16; G-protein Gα16gustducin44): 23821 RFUs
- increase in mean fluorescence over baseline following ligand addition (human TAS2R16; G-protein Gα16z44): 8296 RFUs
- increase in mean fluorescence over baseline following ligand addition ([3]; G-protein Gα16, ligand 5 mM): 1024 RFUs
- increase in mean fluorescence over baseline following ligand addition ([3]; G-protein Gα16gustducin44, ligand 5 mM): 2162 RFUs
- increase in mean fluorescence over baseline following ligand addition ([3]; G-protein Gα16z44, ligand 5 mM): 1541 RFUs

SMILES: O=C1C[C@@H]2OCC=C3CN4CC[C@]56c7ccccc7N1[C@H]5[C@H]2[C@H]3C[C@H]46 [strychnine]
- increase in mean fluorescence over baseline following ligand addition [4]: 13238 RFUs

SMILES: CCCc1cc(=O)[nH]c(=S)[nH]1 [propythiouracil]
- fluorescence signal (in words) (human TAS2R38): robust response

SMILES: COC(=O)[C@H](Cc1ccccc1)NC(=O)[C@@H](N)CC(=O)O [aspartame] (H-Asp-Phe-OMe)
- fluorescence signal with Gα16-gustducin 44, times stronger than wild-type Gα16 (human TAS1R2/TAS1R3): 2 times
- fluorescence signal (in words) (human TAS1R2/TAS1R3): robust flurorescence signal

SMILES: CC1=CC(=O)[N-]S(=O)(=O)O1.[K+] [acesulfame K]
- fluorescence signal with Gα16-gustducin 44, times stronger than wild-type Gα16 (human TAS1R2/TAS1R3): 2 times
- fluorescence signal (in words) (human TAS1R2/TAS1R3): robust flurorescence signal

SMILES: C[C@@H]1C[C@@H]([C@H](O)CC2CC(=O)NC(=O)C2)C(=O)[C@@H](C)C1 [cycloheximide]
- fluorescence signal (in words) (mouse T2R5; HEK293T cells, mouse T2R5, Gα16-gustducin 44, ligand 10 uM): robust flurorescence signal
- fluorescence signal with Gα16-gustducin 44, times stronger than wild-type Gα16 (mouse T2R5; HEK293T cells, mouse T2R5, ligand 10 uM): 5 times
- increase in mean fluorescence over baseline following ligand addition (mouse T2R5; mouse T2R5, G-protein Gα16): 2569 RFUs
- increase in mean fluorescence over baseline following ligand addition (mouse T2R5; mouse T2R5, G-protein Gα16gustducin44): 10407 RFUs
- increase in mean fluorescence over baseline following ligand addition ([5]; G-protein Gα16, ligand 10 μM): 1705 RFUs
- increase in mean fluorescence over baseline following ligand addition ([5]; G-protein Gα16gustducin44, ligand 10 μM): 3989 RFUs
